Experiments:
Format in all cases: in vivo, human
[1] = system: patients with rheumatoid arthritis; assay: Treatment of patients with inflammatory arthropathies: rheumatoid arthritis (case reports)
Description: Treatment of Patient with Inflammatory Arthropathies […]
(b) A patient presented with Rheumatoid Arthritis with pain levels of 10/10 and the following symptoms: morning stiffness, diffuse polyarticular involvement, malaise, weakness, myalgias
Prior treatment included narcotics, antiinflammatories, corticosteroids daily.
Treatment: 0.1 mg/hr nitroglycerin patch applied 2×/day (every 12 hours) to shoulder+2 pills of 250 mg sodium selenite/day (Twin Labs) […]

[2] = system: patient with dermatomyositis; assay: Treatment of patient with inflammatory arthropathies: dermatomyositis (case report)
Description: (c) A patient presented with a 10/10 pain level from Dermatomyositis, with the following symptoms: morning stiffness, diffuse polyarticular involvement, malaise, proximal muscle weakness, muscle tenderness
Prior treatment included narcotics, antiinflammatories, corticosteroids, disease-modifying anti-rheumatologic drugs (DMARDs) daily.
Treatment: 0.3 mg/hr nitroglycerin patch applied 2×/day (every 12 hours) to shoulder+3 pills of 250 mg sodium selenite/day (Twin Labs)

[3] = system: patient with pseudotumor cerebri and morning headache from sleep apnea; assay: Treatment of patient with pseudotumor cerebri; conditions: for outcome of prior treatment: patient history
Description: (III) Treatment of Patient with Pseudotumor Cerebri
A patient presented with daily pseudotumor cerebri and morning headache from sleep apnea, with an intensity of 10/10. […] Patient was treated with 0.2 mg/hr nitroglycerin patch applied 2×/day to shoulder+3 pills of 250 mg sodium selenite/day (Twin Labs)

[4] = system: patients with migraine headaches; assay: Treatment of patients with migraine headaches (case reports)
Description: (I) Treatment of Patients with Migraine Headaches […]
(d) A patient presented with an every other day migraine headache with an intensity of 10/10, and the patient stated “The headaches were so bad that I was unable to work or enjoy my life.” Prior treatment included extensive workup by neurologists.
Treatment: 0.6 mg/hr nitroglycerin patch applied 2×/day (every 12 hours) to ankle for 1 week then shoulder+2 pills of 250 mg sodium selenite/day (Twin Labs) […]

[5] = system: patient with hemicrania continua; assay: Treatment of patient with hemicrania continua; conditions: patient history
Description: (II) Treatment of Patient with Hemicrania Continua
A patient presented with daily hemicrania continua with an intensity of 8-9/10. […] Patient was treated with 0.2 mg/hr nitroglycerin patch applied 2×/day to shoulder+2 pills of 250 mg sodium selenite/day (Twin Labs).

[6] = system: patients with cervicogenic tension headaches; assay: Treatment of patients with cervicogenic tension headaches (case reports)
Description: (II) Treatment of Patients with Cervicogenic Tension Headaches
(a) A patient presented with cervicogenic tension headache with “severe” neck pain with an intensity of 7 or 8/10. The frequency of headaches was everyday and prior treatment included narcotics, NTHEs, Tylenol.
Treatment: 0.4 mg/hr nitroglycerin patch initially applied 1×/day to shoulder+2 pills of 250 mg sodium selenite/day (Twin Labs)
(b) A patient presented with cervicogenic headache with an intensity of 3-4×/wk. Prior treatment included narcotics, Tylenol, NTHEs. Patient was treated with 0.2 mg/hr nitroglycerin patch applied 1×/day applied to shoulder+2 pills of 250 mg sodium selenite/day (Twin Labs)
(c) A patient presented with migraine/cervicogenic headache with a frequency of everyday and an intensity of 7/10. Prior treatment included narcotics, NTHEs, acetaminophen, morphine cream.
Treatment: 0.4 mg/hr nitroglycerin patch applied 1×/day applied to shoulder+2 pills of 250 mg sodium selenite/day (initially) then 0.1 mg/hr nitroglycerin patch applied 1×/day applied to ankle+2 pills of 250 mg sodium selenite/day
(d) A patient presented with a daily cervicogenic tension headache, with an intensity of 10/10. Prior treatment included narcotics, Tylenol, NTHEs.
Treatment: 0.2 mg/hr nitroglycerin patch applied 1×/day to shoulder+3 pills of 250 mg sodium selenite/day (Twin Labs)
(e) A patient presented with a daily cervicogenic tension headache, with an intensity of 10/10. Prior treatment included narcotics, Tylenol, NTHEs, trigger point injections
Treatment: 0.2 mg/hr nitroglycerin patch applied 1×/day to shoulder+2 pills of 250 mg sodium selenite/day (Twin Labs)
(f) A patient presented with a daily cervicogenic tension headache, with an intensity of 7-8/10. Prior treatment included narcotics, Tylenol, NTHEs, trigger point injections
(g) A patient presented with a daily cervicogenic tension headache, with an intensity of 9-10/10. Prior treatment included narcotics, Tylenol, NTHEs, trigger point injections, BoTox which worked well for 3 months but is too expensive
Treatment: 0.2 mg/hr nitroglycerin patch applied 2×/day to shoulder+3 pills of 250 mg sodium selenite/day (Twin Labs).
(h) A patient presented with a daily cervicogenic tension headache with an intensity of 5/10. Prior treatment included narcotics, Tylenol, NTHEs, trigger point injections.
(i) A patient presented with a daily cervicogenic tension headache, with an intensity of 7-8/10. Prior treatment included narcotics, Tylenol, NTHEs, trigger point injections

[7] = dermatomyositis patient (c), patient history

With `C[C@]12C=CC(=O)C=C1CC[C@@H]1[C@@H]2C(=O)C[C@@]2(C)[C@H]1CC[C@]2(O)C(=O)CO` [Prednisone] the “side effects of prior treatment” value ([1]; RA patient (b), patient history, daily corticosteroids) was “Vertebral fractures and osteonecrosis”, the “initial response to prior treatment” value [2, 7] was “excellent response” and the “side effects of prior treatment” value [2, 7] was “steroid-induced osteoporotic rib and wrist fractures”.
`CC(=O)Nc1nnc(S(N)(=O)=O)s1` [Diamox] was tested, and the “outcome of prior treatment” value [3] was “without much success”.
In the case of `CC1(C)O[C@@H]2[C@@H](CO[C@@]3(COS(N)(=O)=O)OC(C)(C)O[C@@H]23)O1` [Topamax], the “outcome of prior treatment” value ([4]; migraine patient (d), patient history) is reported as “without success” and the “outcome of prior treatment” value [3] is reported as “without much success”.
For `CNS(=O)(=O)Cc1ccc2[nH]cc(CCN(C)C)c2c1` [Imitrex, sumatriptan], the “effect of Imitrex on treatment-induced worsened headaches” value ([3]; patient on nitroglycerin patch + selenite) was “improved”.
`CC(=O)Nc1ccc(O)cc1` [Tylenol] was tested, and the “outcome of prior treatment” value [3] was “without much success” and the “outcome of prior treatment” value [5] was “without success”.
In the case of `CNC[C@H](O)c1cccc(O)c1.Cl` [SUDAFED, phenylephrine hydrochloride], the “alleviation of treatment-induced headache by SUDAFED” value (from here on “alleviation”) ([1]; RA patient (a) on nitroglycerin patch + selenite) is reported as “partially alleviated”, the “alleviation” value ([1]; RA patient (b) on nitroglycerin patch + selenite) is reported as “partially alleviated” and the “alleviation” value ([1]; RA patient (d) on nitroglycerin patch + selenite) is reported as “partially alleviated”. For the same compound, the “alleviation” value ([1]; RA patient (e) on nitroglycerin patch + selenite) was “partially alleviated”, the “alleviation” value ([6]; cervicogenic patient (a) on nitroglycerin patch + selenite) was “unalleviated” and the “alleviation” value ([6]; cervicogenic patient (g) on nitroglycerin patch + selenite) was “partially alleviated”. The “alleviation” value ([6]; cervicogenic patient (i) on nitroglycerin patch + selenite) was “totally alleviated”, the “alleviation” value ([6]; cervicogenic patient on nitroglycerin patch + selenite) was “alleviated” and the “alleviation” value ([4]; migraine patient (a) on nitroglycerin patch + selenite) was “partially alleviated”. The “alleviation” value ([4]; migraine patient (b) on nitroglycerin patch + selenite) was “partially alleviated”, the “alleviation” value ([4]; migraine patient (d) on nitroglycerin patch + selenite) was “not alleviated” and the “alleviation” value ([4]; migraine patient (h) on nitroglycerin patch + selenite) was “partially alleviated”. The “alleviation” value ([4]; migraine patient on nitroglycerin patch + selenite) was “partially alleviated”, the “alleviation” value ([4]; migraine/tension patient (c) on nitroglycerin patch + selenite) was “not alleviated” and the “alleviation” value ([2]; dermatomyositis patient (c) on nitroglycerin patch + selenite) was “partially alleviated”.
